Data from patent US20240174634A1, “Aldehyde Dehydrogenase Inhibitors and Their Therapeutic Use” (priority 2020, published 2024).

Each compound was assayed against T1, ALDH1A3 (Homo sapiens, UniProt P47895) (assay: Primary biochemical assay, NAD(P)H-Glo Detection System). Conditions: 30 min pre-incubation, propionaldehyde and NAD at Km.
T1 sequence (P47895 1-512): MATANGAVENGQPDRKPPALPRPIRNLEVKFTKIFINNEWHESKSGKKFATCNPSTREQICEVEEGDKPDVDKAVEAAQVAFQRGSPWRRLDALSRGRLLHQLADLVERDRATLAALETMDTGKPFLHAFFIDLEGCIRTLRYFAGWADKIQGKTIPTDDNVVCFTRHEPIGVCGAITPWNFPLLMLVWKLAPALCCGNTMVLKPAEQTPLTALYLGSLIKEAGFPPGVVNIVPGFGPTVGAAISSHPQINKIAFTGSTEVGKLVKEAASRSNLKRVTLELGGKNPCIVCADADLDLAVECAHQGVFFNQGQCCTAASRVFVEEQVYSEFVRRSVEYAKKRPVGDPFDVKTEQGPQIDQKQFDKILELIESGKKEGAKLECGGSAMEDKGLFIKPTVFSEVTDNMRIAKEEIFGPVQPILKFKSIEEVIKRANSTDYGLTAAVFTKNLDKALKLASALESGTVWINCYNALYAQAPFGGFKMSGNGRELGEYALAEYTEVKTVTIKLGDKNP
Parameters: His-tag; made in house; host or cells: E. coli Rosetta (DE3)
Summary of the method: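 Recombinant full-length His-tagged human enzymes expressed in E. coli were pre-incubated 30 min at room temperature with compound (10-point, 3-fold series; top 20 μM for ALDH1A3, 250 μM for ALDH1A1/1A2). Propionaldehyde and NAD were then added at Km; NADH was read by NAD(P)H-Glo luminescence. Buffer: Tris (pH 7.6 for 1A1/1A2, 9.0 for 1A3), 1 mM TCEP, 0.01% Tween-20.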

Row | Structure (SMILES) | IC50
1 | CCN(CC)CCN(CCOc1ccc2c(c1)CCC(=O)N2)Cc1ccccc1 [ALDHI-3004, 6-[2-[benzyl-[2-(diethylamino)ethyl]amino]ethoxy]-3,4-dihydro-1H-quinolin-2-one] | 100 to 1000 nM
2 | O=C1CCc2cc(OCCN(CCO)Cc3cccnc3)ccc2N1 [ALDHI-3005, 6-[2-[2-hydroxyethyl(3-pyridylmethyl)amino]ethoxy]-3,4-dihydro-1H-quinolin-2-one] | < 100 nM
3 | C[C@H](c1ccccc1)N(CCO)CCOc1ccc2c(c1)CCC(=O)N2 [ALDHI-3006, 6-[2-[2-hydroxyethyl-[(1R)-1-phenylethyl]amino]ethoxy]-3,4-dihydro-1H-quinolin-2-one] | 100 to 1000 nM
4 | C[C@@H](c1ccccc1)N(CCO)CCOc1ccc2c(c1)CCC(=O)N2 [ALDHI-3007, 6-[2-[2-hydroxyethyl-[(1S)-1-phenylethyl]amino]ethoxy]-3,4-dihydro-1H-quinolin-2-one] | 100 to 1000 nM
5 | CN(CCOc1ccc2c(c1)CCC(=O)N2)C(=O)c1cccc(F)c1 [ALDHI-3008, 3-fluoro-N-methyl-N-[2-[(2-oxo-3,4-dihydro-1H-quinolin-6-yl)oxy]ethyl]benzamide] | 100 to 1000 nM
6 | CN(CCOc1ccc2c(c1)CCC(=O)N2)Cc1cccnc1 [ALDHI-3010, 6-[2-[methyl(3-pyridylmethyl)amino]ethoxy]-3,4-dihydro-1H-quinolin-2-one] | 100 to 1000 nM
7 | CN(CCOc1ccc2c(c1)CCC(=O)N2)C(=O)c1cccnc1 [ALDHI-3013, N-methyl-N-[2-[(2-oxo-3,4-dihydro-1H-quinolin-6-yl)oxy]ethyl]pyridine-3-carboxamide] | 100 to 1000 nM
